In article PMC11241437, “Structure-Based Analysis of Cefaclor Pharmacokinetic Diversity According to Human Peptide Transporter-1 Genetic Polymorphism” (International Journal of Molecular Sciences, 2024):

Key:
PEPT1 = test system: PEPT1; design: method as in PMID 9950279; conditions: Caco-2; cited from earlier work
clinical = conditions: male, human, in vivo, po, 250 mg
Protocol: Cefaclor bioequivalence results in 24 healthy Korean men obtained from a previous study were reused for the analysis of cefaclor pharmacokinetics according to PEPT1 genetic polymorphisms in this study. Among the previous bioequivalence results, those for the test formulation were excluded, and only the clinical results for the reference drug, cefaclor 250 mg capsule (Eli Lilly and Company, Indianapolis, IN, USA; Lot number: L1692Y1) were used. […] Table S2 presents the demographic information of the subjects, including physiological and biochemical parameters. The determination of clinical biochemical parameter values was performed by serological analysis through a dry automated analyzer. The analytical instrument was a microside VITROS (Ortho Clinical Diagnostics, Raritan, NJ, USA) operated by reflectance spectrophotometry. Information on the selection and progress of clinical trial participants is presented in Supplementary Information S1, and information on clinical trial design and sampling is presented in Supplementary Information S2. The clinical trial protocol was thoroughly reviewed and officially approved (approval number: 112; 09.03.2004) by the Institutional Review Board of the Institute of Bioequivalence and Bridging Study (Gwangju, Republic of Korea). Information on the high-performance liquid chromatography-ultraviolet (HPLC-UV) method used to quantify cefaclor in plasma samples is briefly presented in Supplementary Information S3.
Genetic polymorphism information for all subjects participating in the clinical trial could be obtained using blank plasma samples derived from each subject. The genetic information targeted in this study was SLC15A1 exons 5 and 16 as the PEPT1 coding gene. SNPs in SLC15A1 exons 5 and 16 were analyzed through pyrosequencing and restriction fragment length polymorphism (RFLP) via polymerase chain reaction (PCR), respectively. The target SNPs in SLC15A1 exons 5 and 16 were c.381G>A and c.1287G>C, respectively, and the genetic polymorphism analysis methods for these were presented in Supplementary Information S4.
The results of the analysis of plasma concentration over time after single oral administration of cefaclor 250 mg capsule could be calculated as cefaclor pharmacokinetic parameter values through non-compartmental analysis (NCA). NCA was performed using Phoenix WinNonlin software (version 8.4, Certara Inc., Princeton, NJ, USA). The main calculated pharmacokinetic parameters are area under the curve in a plasma concentration-time graph (AUC), clearance (CL/F), peak plasma drug concentration after administration (Cmax), elimination half-life (T1/2), mean residence time (MRT), time to reach Cmax (Tmax), and volume of the distribution (V/F). Specific calculation methods for pharmacokinetic parameters are presented in Supplementary Information S5. The calculated pharmacokinetic parameter values were classified according to the genetic polymorphisms of SLC15A1 exons 5 and 16 and compared between genotype groups. Comparison of significant differences between the three genotype groups (SLC15A1 exon 5) was performed using one-way analysis of variance (ANOVA), and comparison of significant differences between two genotype groups (SLC15A1 exon 16) was performed using a two-tailed t test. All significance judgments in statistical tests were based on a p value of 0.05. Additionally, differences in pharmacokinetics between groups were confirmed through a graphic comparison of cefaclor plasma concentration profiles between genotypes classified according to genetic polymorphisms of SLC15A1 exons 5 and 16.
Supplementary Information S2
Clinical trial design and sampling
This bioequivalence study was performed as randomized, single-dose, open-label, crossover, and two-way studies (with a washout period of 7 days). Prior to the clinical trial, subjects had a heparin-locked (150 unit/mL) JELCO 22G angio-catheter (Smiths Medical, Minneapolis, […]

[1] = format: in vitro ADME; conditions: human
Protocol: Supplementary Information S3
Determination of cefaclor plasma concentrations
Concentrations of unchanged cefaclor in plasma were determined by applying high performance liquid chromatography coupled with an ultraviolet (HPLC-UV), which has been established and validated in previous studies. The LC10 ADvp system (Shimadzu Inc., Kyoto, Japan) was used as an analysis device. Briefly describing the analysis method, plasma samples were pretreated through liquid-liquid extraction using 6% (v/v) trichloroacetic acid and then selectively separated on a Symmetry C18 column (5 μm, 4.6 × 150 mm; Waters Co., Milford, MA, USA) using water (mobile phase A) and methanol (mobile phase B) as mobile phases.
The composition ratio of mobile phases A and B was isocratically eluted at 88:12 (v/v), and the quantification of cefaclor was performed at a wavelength of 265 nm. Cephradine, which has a similar structure to cefaclor, was used as an internal standard (IS), and the retention times in the column for cefaclor and IS were 15 min and 23 min, respectively. The lower limit of quantification was 0.1 μg/mL, and the linear calibration curve was secured with a coefficient of determination of 0.99 or higher up to the concentration range of 10 μg/mL. The […]
calibration curve. […]

Compound | substrate interaction with PEPT1 (PEPT1) | also measured
C=CC1=C(C(=O)O)N2C(=O)[C@@H](NC(=O)/C(=N\OCC(=O)O)c3csc(N)n3)[C@H]2SC1 [cefixime] | may have substrate interactions with PEPT1 | 
CC1=C(C(=O)O)N2C(=O)[C@@H](NC(=O)[C@H](N)c3ccccc3)[C@H]2SC1 [cephalexin] | may have substrate interactions with PEPT1 | 
CC1=C(C(=O)O)N2C(=O)[C@@H](NC(=O)[C@H](N)c3ccc(O)cc3)[C@H]2SC1 [cefadroxil] | may have substrate interactions with PEPT1 | 
CO/N=C(\C(=O)N[C@@H]1C(=O)N2C(C(=O)O)=C(COC(N)=O)CS[C@H]12)c1ccco1 [cefuroxime] | may have substrate interactions with PEPT1 | 
Cn1nnnc1SCC1=C(C(=O)O)N2C(=O)[C@@H](NC(=O)[C@H](O)c3ccccc3)[C@H]2SC1 [cefamandole] | may have substrate interactions with PEPT1 | 
N[C@@H](C(=O)N[C@@H]1C(=O)N2C(C(=O)O)=C(Cl)CS[C@H]12)c1ccccc1 [cefaclor] | interaction substrate with PEPT1 | AUC (clinical; AUCall): 7590 ± 1520 ng·h/mL; AUC(0-inf) (clinical; AUCinf): 7740 ± 1530 ng·h/mL; Cmax (clinical; Cmax): 6510 ± 1900 ng/mL; MRT (clinical; MRT (mean residence time)): 75.6 ± 11.4 min; half-life (clinical; T1/2 (elimination half-life)): 36 ± 3.6 min; Tmax (clinical; Tmax): 49.2 ± 21 min
CC1=C(C(=O)O)N2C(=O)[C@@H](NC(=O)[C@H](N)C3=CCC=CC3)[C@H]2SC1 [cephradine] | may have substrate interactions with PEPT1 | stabilities in plasma samples [1]: 85-115%
CC(=O)OCC1=C(C(=O)O)N2C(=O)[C@@H](NC(=O)Cc3cccs3)[C@H]2SC1 [cephalotin] | may have substrate interactions with PEPT1 | 
